Like-named read-outs stand apart in the source and are kept apart here.
Tests used:
[1] = biological target: T1, biotinylated human IL-17 (binding to IL17R/Fc) (Homo sapiens, UniProt Q16552); assay: IL-17 competition ELISA II (captured IL17R/Fc, biotinylated IL-17)
T1 construct: purchased R&D Systems 317-ILB (IL-17, biotinylated); 177-IR (IL17R/Fc)
T1 sequence (Q16552 20-155 limits assumed): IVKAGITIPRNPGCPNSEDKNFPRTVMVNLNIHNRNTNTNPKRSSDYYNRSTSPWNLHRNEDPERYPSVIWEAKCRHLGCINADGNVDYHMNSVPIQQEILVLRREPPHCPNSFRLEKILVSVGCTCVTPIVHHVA
Summary of the method: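 Competition read-out: absorbance at 450 nm after streptavidin-HRP/TMB detection, fitted to a 4-parameter logistic model bounded by no-competitor and blank wells to give IC50. Compound was serially diluted 5-fold from 1 μM alongside 20 nM (stock) biotinylated IL-17 on IL17R/Fc (10 nM) captured via goat anti-human IgG, 30 min at room temperature.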

[2] = tested on: IL-17A induced secretion of IL-6 in primary human RASF cells; assay: Inhibition of IL17A induced secretion of IL6 in human rheumatoid arthritis synovial fibroblast (RASF) cells; format: cell-based
Method: This assay was used to determine the extent of inhibition of IL-17A induced secretion of IL-6 in primary human rheumatoid synovial fibroblast (RASF) cells by compounds of the invention. IL-17A is known to stimulate IL-6 production in RASF cells.
Low passage (passage 2-8) Primary human RASF cells (Asterand) were maintained in maintenance medium. Cells were detached from flasks by tryptic digestion and the cell density of the suspension determined. To each well of a 96 well culture plate was added 100 μL of seeding medium containing 50,000 cells/mL and the plate incubated overnight in a humidified 37° C., 5% CO2 incubator. The medium was replaced with fresh assay medium and cells were incubated for additional 5 hours in a humidified 37° C., 5% CO2 incubator prior to stimulation with recombinant human IL-17A (“rhIL-17A”). Prior to addition to cells, rhIL-17A (30 ng/mL) in assay medium was incubated with either DMSO alone, compounds, or anti-IL17 receptor antibody (3 μg/mL) for 1 hour at 37° C. The final concentration of DMSO in all samples was 0.25%. The final concentration of compounds varied from 0.03 μM to 25 μM.
Immediately before stimulation, cells were washed once with fresh assay medium. Then, 100 μL of the test samples was added in triplicate wells and the plates incubated for 20 hours in a humidified 37° C., 5% CO2 incubator. The assay medium from each well was collected and the IL-6 concentration in cell culture supernatants was determined by ELISA either immediately or after storage at −20° C.
A water-soluble tetrazolium salt (WST1) viability assay was immediately performed on the cells after the conditioned medium was collected using a WST1 reagent purchased from Roche. The concentration of IL-6 obtained from ELISA was normalized by the WST1 data.

SMILES	IC50 [1]	IC50 ([2]; Homo sapiens, Fibroblast)	IC50 [2]
NC(=O)C[C@H]1NC(=O)[C@@H](Cc2ccc(NC(=O)[C@H](Cc3ccccc3Cl)NC(=O)Cc3ccc(CO)cc3)cc2)NC(=O)CC2(CCCC2)CC(=O)N[C@H](C(=O)O)CCCCNC1=O [Compound 656]	< 100 nM	< 100 nM	
O=C1CC2(CCCC2)CC(=O)N[C@H](Cc2ccc(NC(=O)[C@H](Cc3ccccc3Cl)NC(=O)Cc3ccc(CO)cc3)cc2)C(=O)N[C@H](Cc2cscn2)C(=O)NCCCC[C@@H](C(=O)O)N1 [Compound 658]	< 100 nM	< 100 nM	
CN1CCCCCN(C)C(=O)[C@@H](CCC(N)=O)NC(=O)[C@@H](Cc2ccc(NC(=O)[C@@H](NC(=O)Cc3ccc(N(C)C)cc3)C3CCCCC3)cc2)NC(=O)CC2(CCCC2)CC1=O [Compound 626]	< 100 nM	100 to 1000 nM	
O=C1CNC(=O)[C@@H](Cc2ccc(NC(=O)[C@H](Cc3ccc(F)cc3Cl)NC(=O)Cc3ccc(CO)cc3)cc2)NC(=O)CC2(CCCC2)CC(=O)NCCCCCN1 [Compound 408]	< 100 nM	100 to 1000 nM	
C[C@H]1NC(=O)[C@@H](Cc2ccc(NC(=O)[C@H](Cc3ccccc3Cl)NC(=O)Cc3ccc(F)cc3)cc2)NC(=O)CC2(CCCC2)CC(=O)N(C)CCCCCNC1=O [Compound 469]	< 100 nM	1000 to 10000 nM	
Cc1ccccc1C[C@H](NC(=O)Cc1ccc(F)cc1)C(=O)Nc1ccc(C[C@H]2NC(=O)CC3(CCCC3)CC(=O)NCCOCCOCCNC2=O)cc1 [Compound 478]	< 100 nM	1000 to 10000 nM	
O=C1CC2(CCCC2)CC(=O)N[C@H](Cc2ccc(NC(=O)[C@H](Cc3ccccc3Cl)NC(=O)c3cccnc3)cc2)C(=O)NCCCCCCCCN1 [Compound 442]	< 100 nM	1000 to 10000 nM	
CN1CCNC(=O)CC2(CCCC2)CC(=O)N[C@H](Cc2ccc(NC(=O)[C@H](Cc3ccccc3Cl)NC(=O)Cc3ccccc3)cc2)C(=O)NCC1 [Compound 399]	< 100 nM	1000 to 10000 nM	
O=C1CC2(CCCC2)CC(=O)N[C@H](Cc2ccc(NC(=O)[C@H](Cc3ccccc3Cl)NC(=O)Oc3ccccc3)cc2)C(=O)NCCOCCOCCN1 [Compound 571]	< 100 nM	1000 to 10000 nM	
CN1CCCCCNC(=O)[C@@H](CCC(=O)O)NC(=O)[C@@H](Cc2ccc(NC(=O)[C@H](Cc3ccccc3Cl)NC(=O)Cc3cccc(O)c3)cc2)NC(=O)CC2(CCCC2)CC1=O [Compound 473]	< 100 nM	100 to 1000 nM	
CN1CCCCCN(C)C(=O)[C@@H](Cc2ccncc2)NC(=O)[C@@H](Cc2ccc(NC(=O)[C@H](Cc3ccccc3Cl)NC(=O)C(F)(F)c3ccccc3)cc2)NC(=O)CC2(CCCC2)CC1=O [Compound 627]	< 100 nM	100 to 1000 nM	
C[C@H]1NC(=O)[C@@H](Cc2ccc(NC(=O)[C@@H](NC(=O)C(F)(F)c3ccccc3)C3CCCCC3)cc2)NC(=O)CC2(CCCC2)CC(=O)N(C)CCCCCN(C)C1=O [Compound 600]	< 100 nM	1000 to 10000 nM	
O=C1CC2(CCCC2)CC(=O)NC(Cc2ccc(NC(=O)C(Cc3ccccc3Cl)NC(=O)c3cccnc3)cc2)C(=O)NCCOCCOCCN1 (stereo not shown) [Compound 406]	< 100 nM		1000 to 10000 nM
C[C@H]1NC(=O)[C@@H](Cc2ccc(NC(=O)[C@H](Cc3ccccc3Cl)NC(=O)Cc3ccc(N(C)C)cc3)cc2)NC(=O)CC2(CCCC2)CC(=O)NCCCCCNC1=O [Compound 552]	< 100 nM	< 100 nM	
CN1CCCCCN(C)C(=O)[C@@H](CCC(N)=O)NC(=O)[C@@H](Cc2ccc(NC(=O)[C@@H](NC(=O)Cc3ccc(CO)cc3)C3CCCCC3)cc2)NC(=O)CC2(CCCC2)CC1=O [Compound 653]	< 100 nM	1000 to 10000 nM	
C[C@H]1NC(=O)[C@@H](Cc2ccc(NC(=O)[C@H](Cc3ccccc3Cl)NC(=O)C3(c4ccc(F)cc4)CC3)cc2)NC(=O)CC2(CCCC2)CC(=O)NCCCCCNC1=O [Compound 427]	< 100 nM	1000 to 10000 nM	
C[C@H]1NC(=O)[C@@H](Cc2ccc(NC(=O)[C@H](Cc3ccccc3Cl)NC(=O)C3(c4ccc(F)cc4)CC3)cc2)NC(=O)CC2(CCCC2)CC(=O)N[C@H](C(=O)O)CCCCNC1=O [Compound 513]	< 100 nM	100 to 1000 nM	
C[C@H]1NC(=O)[C@@H](Cc2ccc(NC(=O)[C@H](Cc3ccccc3Cl)NC(=O)Cc3ccc(N(C)C)cc3)cc2)NC(=O)CC2(CCCC2)CC(=O)N(C)CCOCCN(C)C1=O [Compound 584]	< 100 nM	1000 to 10000 nM	
C[C@H]1NC(=O)[C@@H](Cc2ccc(NC(=O)[C@H](Cc3ccccc3Cl)NC(=O)Cc3ccc(F)cc3)cc2)NC(=O)CC2(CCCC2)CC(=O)N[C@H](C(=O)O)CCCCNC1=O [Compound 529]	< 100 nM	< 100 nM	
CN1CCCCCN(C)C(=O)[C@@H](CCC(N)=O)NC(=O)[C@@H](Cc2ccc(NC(=O)[C@@H](NC(=O)Cc3cccc(O)c3)C3CCCCC3)cc2)NC(=O)CC2(CCCC2)CC1=O [Compound 646]	< 100 nM	1000 to 10000 nM	
O=C1CC2(CCCC2)CC(=O)N[C@H](Cc2ccc(NC(=O)[C@H](Cc3ccccc3Cl)NC(=O)Cc3ccc(F)cc3)cc2)C(=O)N[C@H](C2CCCCC2)C(=O)NCCCCCN1 [Compound 425]	< 100 nM	100 to 1000 nM	

Now from value to compound, other results behind:

IC50 [1]	SMILES	IC50 ([2]; Homo sapiens, Fibroblast)	IC50 [2]
< 100 nM	O=C1CC2(CCCC2)CC(=O)N[C@H](Cc2ccc(NC(=O)[C@H](Cc3ccccc3Cl)NC(=O)Cc3ccc(CO)cc3)cc2)C(=O)N[C@H](Cc2cccnc2)C(=O)NCCCC[C@@H](C(=O)O)N1 [Compound 657]	< 100 nM	
< 100 nM	CC(O)[C@H]1NC(=O)[C@@H](Cc2ccc(NC(=O)[C@H](Cc3ccccc3Cl)NC(=O)C(F)(F)c3ccccc3)cc2)NC(=O)CC2(CCCC2)CC(=O)N(C)CCOCCN(C)C1=O (stereo partly shown) [Compound 639]	1000 to 10000 nM	
< 100 nM	CN1C(=O)CC2(CCCC2)CC(=O)NCCCCCNC(=O)CNC(=O)[C@H]1Cc1ccc(NC(=O)[C@H](Cc2ccccc2Cl)NC(=O)Cc2ccccc2)cc1 [Compound 413]	> 10000 nM	
< 100 nM	O=C1CC2(CCCC2)CC(=O)N[C@H](Cc2ccc(NC(=O)[C@H](Cc3ccccc3Cl)NC(=O)Cc3ccc(CO)cc3)cc2)C(=O)N[C@H](Cc2c[nH]c3ccccc23)C(=O)NCCCC[C@@H](C(=O)O)N1 [Compound 661]	< 100 nM	
< 100 nM	O=C1CC2(CCCC2)CC(=O)N[C@H](Cc2ccc(NC(=O)[C@H](Cc3ccccc3Cl)NC(=O)Cc3cccc(O)c3)cc2)C(=O)NCCCCCCCCN1 [Compound 441]	100 to 1000 nM	
< 100 nM	O=C1CC2(CCCC2)CC(=O)N[C@H](Cc2ccc(NC(=O)[C@H](Cc3ccccc3Cl)NC(=O)Cc3ccc(CO)cc3)cc2)C(=O)N[C@@H](CO)C(=O)NCCCC[C@@H](C(=O)O)N1 [Compound 455]	< 100 nM	
< 100 nM	O=C1CC2(CCCC2)CC(=O)N[C@H](Cc2ccc(NC(=O)[C@H](Cc3ccccc3Cl)NC(=O)Cc3ccc(CO)cc3)cc2)C(=O)N[C@H](Cc2c[nH]cn2)C(=O)NCCCC[C@@H](C(=O)O)N1 [Compound 662]	< 100 nM	
< 100 nM	O=C1CC2(CCCC2)CC(=O)N[C@H](Cc2ccc(NC(=O)[C@H](Cc3ccccc3Cl)NC(=O)Cc3ccc(F)cc3)cc2)C(=O)NCC#CCCCCCN1 [Compound 446]	100 to 1000 nM	
< 100 nM	C[C@H]1NC(=O)[C@@H](Cc2ccc(NC(=O)[C@H](Cc3ccccc3Cl)NC(=O)Cc3ccc(F)cc3)cc2)NC(=O)CC2(CCCC2)CC(=O)N(C)CCN(C)CCN(C)C1=O [Compound 539]	1000 to 10000 nM	
< 100 nM	CC1NC(=O)C(Cc2ccc(NC(=O)C(Cc3ccccc3Cl)NC(=O)Cc3ccc(F)cc3)cc2)NC(=O)C2(CCCC2)CCC(=O)NCCCCCNC1=O (stereo not shown) [Compound 561]		1000 to 10000 nM
< 100 nM	C[C@H]1NC(=O)[C@@H](Cc2ccc(NC(=O)[C@H](Cc3ccccc3Cl)NC(=O)Cc3ccc(F)cc3)cc2)N(C)C(=O)CC2(CCCC2)CC(=O)N(C)CCCCCNC1=O [Compound 480]	1000 to 10000 nM	
< 100 nM	O=C1CC2(CCCC2)CC(=O)N[C@H](Cc2ccc(NC(=O)[C@H](Cc3ccccc3Cl)NC(=O)Cc3ccc(F)cc3)cc2)C(=O)N[C@H](CC2CCCCC2)C(=O)NCCCCCN1 [Compound 499]	100 to 1000 nM	
< 100 nM	C[C@H]1NC(=O)[C@@H](Cc2ccc(NC(=O)[C@H](Cc3ccccc3Cl)NC(=O)Cc3ccccc3)cc2)NC(=O)CC2(CCCC2)CC(=O)NCCNCCNC1=O [Compound 443]	100 to 1000 nM	
< 100 nM	CN1CCCCCN(C)C(=O)[C@@H](CCC(N)=O)NC(=O)[C@@H](Cc2ccc(NC(=O)[C@H](Cc3ccccc3Cl)NC(=O)C(F)(F)c3ccccc3)cc2)NC(=O)CC2(CCCC2)CC1=O [Compound 645]	100 to 1000 nM	

From US9284283B2, “Macrocyclic compounds for modulating IL-17” (ENSEMBLE THERAPEUTICS CORPORATION, priority 2012, dated 2016)
